# Reference: US20250179437A1, “L[…] FOR PRODUCING PRIMITIVE STREAK CELLS” (UNIVERSITY HEALTH NETWORK, priority 2023, published 2025)
# What was measured:
# Type in all cases: cell-based, human
# H1 hPSC line [1] = assay: Differentiation of hPSCs into primitive streak and definitive endoderm with or without Latrunculin A (flow cytometry)
# From the text: Human pluripotent stem cell (hPSC) lines: For protocol optimization, the H1 hPSC line^1, purchased from WiCell Research Institute (Madison, USA) was employed. This work has received approval from the Stem Cell Oversight Committee (SCOC) as the focus of a Canadian Institutes of Health Research (CIHR) Canada Graduate Scholarship-Doctoral (CGS-D) award.
# hPSC expansion and passage: Cells were cryopreserved in a media composed of 50% IMDM (Life Technologies #12440) or StemMACS iPS-brew XF (Miltenyi Biotec #130-104-368), 40% Fetal Bovine Serum (FBS, Gibco #12483-020), and 10% DMSO (Millipore Sigma #D2650). Cryopreserved hPSCs were thawed in DMEM:F12 (Wisent #319-085-CL) at a ratio of 1 mL cells: 9 mL media, centrifuged at 1000 revolutions per minute (RPM) for 5 minutes, and resuspended in StemMACS iPS-brew XF with 10 μM ROCK1/2 inhibitor (Y-27652, Tocris Biosciences #1254). Cells were maintained in monolayer culture in StemMACS iPS-brew XF media with daily media changes. Upon reaching full confluency, cells were passaged by single cell dissociation using TrypLE (Life Technologies #12605) with 1% DNase 1 mg/mL (Calbiochem 260913), centrifuged for 5 min at 1000 RPM, and resuspended in StemMACS iPS-brew XF with 10 μM ROCK1/2 inhibitor (Y-27652, Tocris Biosciences #1254). Cells were split at a cell line-specific ratio to ensure confluency within 2-3 days, upon which differentiation was initiated.
# hPSC differentiation: On day 0, confluent cultures of hPSCs in monolayer format were washed with Calcium- and Magnesium-free dPBS (Corning #20-031-CV) and fed with media with or without Latrunculin A to generate primitive streak (day 1) and definitive endoderm (day 3). The media used at day 0, 1, and 2 are specified in the tables below (Tables 1.1-1.2). When reagents were obtained from suppliers as liquids, the concentration is provided as a percentage of reagent volume/base media volume. When reagents were provided as desiccated powders that required reconstitution, the concentration is specified in either mass or molarity per unit volume of fully reconstituted media. All media were supplemented with 1% vol/vol Gibco Penicillin-Streptomycin (ThermoFisher Scientific #15070063). […]
# Dissociated cells in suspension culture were filtered through a 35 micrometer cell strainer, centrifuged, and the supernatant was discarded. […] Cells were analyzed on a BD LSRFortessa flow cytometer. […] Experimental data was analyzed using FlowJo Software (BD).
# Cell-surface flow cytometry of hPSC-derived cells: Dissociated cells were directly incubated with directly conjugated primary antibodies (table 1.3) in staining buffer for 20 minutes at room temperature. Cells were then washed once, and resuspended in staining buffer containing 1:100,000 DAPI (Biotium #40043) and directly analyzed by flow cytometry. […]
# H1 hPSC line [2] = assay: Differentiation of hPSC-derived definitive endoderm to pancreatic progenitors and beta-like cells (flow cytometry)
# From the text: (§1) hPSC differentiation: On day 0, confluent cultures of hPSCs in monolayer format were washed with Calcium- and Magnesium-free dPBS (Corning #20-031-CV) and fed with media with or without Latrunculin A to generate primitive streak (day 1) and definitive endoderm (day 3). The media used at day 0, 1, and 2 are specified in the tables below (Tables 1.1-1.2). When reagents were obtained from suppliers as liquids, the concentration is provided as a percentage of reagent volume/base media volume. When reagents were provided as desiccated powders that required reconstitution, the concentration is specified in either mass or molarity per unit volume of fully reconstituted media. All media were supplemented with 1% vol/vol Gibco Penicillin-Streptomycin (ThermoFisher Scientific #15070063).
# (§2) Following definitive endoderm formation, cells were treated with differentiation media to generate either pancreatic or lung cells.
# In an embodiment, the method comprises steps for differentiate the endodermal cell population to pancreatic cells. For example, as described herein differentiation from a an endodermal cell at day 3 differentiation to pancreatic lineages involves a series of steps that will differentiate cells to pancreatic progenitors cells at day 12-13 as described by Nostro et al 2015^2 or Yung and Poon 2019^3 and endocrine cells from day 20 onwards as described by Rezania et al 20144, Pagliuca et al., 2014^5, Hogrebe et al. 2020^6 or Balboa et al., 2022^7, where typically stage 1 is known to generate definitive endoderm, stage 4 is known to generate pancreatic progenitors and stage 6 is known to generate islet-like cells. Stage 2 can span for example 2 to 3 days and stage 3 can span for example 1 to 4 days. Stage 2 for example can include contacting the population to be differentiated (e.g. the Stage 1 endoderm cells) with Fibroblast Growth Factor 10 (FGF10), optionally wingless-type MMTV integration site family member 3A (Wnt3a), optionally Retinoic acid (RA), optionally Activin A, and optionally Dorsomorphin to produce Stage 2 differentiated cells. […]
# H1 hPSC line [3] = assay: Differentiation of hPSC-derived definitive endoderm to NKX2-1+ lung progenitors (flow cytometry, immunofluorescence); conditions: vs definitive endoderm generated in the absence of LatA
# From the text: as §1, §2
# In an embodiment, the method comprises steps for differentiate the endodermal cell population to lung cells. […]
# Dissociated cells in suspension culture were filtered through a 35 micrometer cell strainer, centrifuged, and the supernatant was discarded. […] Cells were analyzed on a BD LSRFortessa flow cytometer. […] Experimental data was analyzed using FlowJo Software (BD). […]
# [4] = day 13, vs control without LatA
smiles,measurement,setting,value
C/C1=C/C(=O)O[C@@H]2C[C@@H](CC[C@H](C)/C=C\C=C\CC1)O[C@@](O)([C@@H]1CSC(=O)N1)C2 [Latrunculin A],efficiency of primitive streak cell generation,H1 hPSC line [1]; Latrunculin A-treated hPSCs,high efficiencies
same,BRA+ primitive streak cells generated,"H1 hPSC line [1]; high-density hPSCs, MEF-free, LatA at day 0, 24 hours after starting differentiation",nearly pure populations
same,frequency of FOXA2+SOX17+ definitive endoderm (DE)-like cells,"H1 hPSC line [1]; high-density hPSCs, day 3 of differentiation, vs control without LatA",significantly higher frequencies
same,impairment of high-density cells in their ability to generate BRA+ cells,"H1 hPSC line [1]; high-density vs low-density hPSCs, LatA treatment at day 0",completely abrogated
same,PDX1−NKX6-1− cells,H1 hPSC line [2]; [4],greatly reduced
same,frequency of PDX1+NKX6.1+ hPSC-derived pancreatic progenitors,H1 hPSC line [2]; [4],greater frequency
same,frequency of NKX6-1+CPEP+ beta-like cells,"H1 hPSC line [2]; day 23 of differentiation, vs control protocol",greater frequency
same,frequency of NKX2-1+ lung progenitors,H1 hPSC line [3],much higher frequencies
